# Reference: BindingDB's records for doi:10.7270/Q24M9315 (The Scripps Research Institute Molecular Screening Center, 2011)
# Biological target: T1, Caspase-3 (Homo sapiens, UniProt P42574)
# T1 sequence (P42574 whole entry): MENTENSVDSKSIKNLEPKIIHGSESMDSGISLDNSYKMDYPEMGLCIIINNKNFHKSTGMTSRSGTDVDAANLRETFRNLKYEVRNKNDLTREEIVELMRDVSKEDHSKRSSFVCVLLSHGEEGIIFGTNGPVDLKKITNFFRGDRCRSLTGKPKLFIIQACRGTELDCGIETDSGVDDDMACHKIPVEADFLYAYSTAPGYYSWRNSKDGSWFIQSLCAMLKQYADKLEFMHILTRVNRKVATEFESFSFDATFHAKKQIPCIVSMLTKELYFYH
# Assay: activators of human procaspase-3 D3A mutant – biochemical, absorbance, PC-3 D3A mutant, counter-screen for dual procaspase-3/7 activator project, dose response (AID 504328)
row,SMILES,EC50 [µM]
1,"O=C(c1ccccc1)c1[nH]n(-c2ccccc2)c2c(O)n(-c3ccccc3)c(=O)c1-2 [3-benzoyl-1,5-diphenyl-3a,6a-dihydropyrrolo[3,4-c]pyrazole-4,6-dione]",> 85.3
2,C=CC=Nc1c(Cl)c(O)n(-c2cccc(Cl)c2Cl)c1O [MLS000533809],> 85.3
3,Cc1[nH]nc2c1C(c1c[nH]c3ccccc13)C(C#N)C(=N)O2 (configuration not stated) [MLS001030009],23.1

# Second part, the molecule after the results:
row,EC50 [µM],SMILES
1,> 85.3,COc1ccccc1-n1c(O)c2n(-c3ccccc3)[nH]c(C(=O)c3ccccc3)c-2c1=O
2,> 85.3,"COC(=O)c1[nH]n(-c2ccc(Cl)cc2)c2c(O)n(-c3ccccc3OC)c(=O)c1-2 [1-(4-Chloro-phenyl)-5-(2-methoxy-phenyl)-4,6-dioxo-1,3a,4,5,6,6a-hexahydro-pyrrolo[3,4-c]pyrazole-3-carboxylic acid methyl ester]"
3,> 85.3,"CCOC(=O)C(C#N)C=Nc1cc(OC)ccc1OC (configuration not stated) [(E)-2-Cyano-3-(2,5-dimethoxy-phenylamino)-acrylic acid ethyl ester]"
4,> 85.3,CCOc1ccc(NC=C2C(=O)CC(c3ccco3)CC2=O)cc1 (configuration not stated) [SMR000268302]
